# Source: the NIST ThermoML archive (doi:10.1016/j.fluid.2018.01.019)
# ± gives the expanded uncertainty stated by the source.
# Legend:
# [1] = refractive index (Na D-line) (dimensionless); xn = mol fraction of the nth substance listed; details: 313.15 K; 101 kPa; Liquid; Standard Abbe refractometry; x1 = 0.333
# [2] = xn = mol fraction of the nth substance listed; details: 313.15 K; 101 kPa; Liquid; Vibrating tube method; x1 = 0.333
smiles,measurement,setting,value
C[N+](C)(C)C.[Cl-] [tetramethylammonium chloride] + OCCO,refractive index,[1],1.45599 ± 0.00033
same,mass density,[2],1072.19 ± 0.19 kg/m3
